Article PMC8878317, “Chemogenomics identifies acetyl-coenzyme A synthetase as a target for malaria treatment and prevention” (Cell Chemical Biology, 2022)

How the values were obtained:
Type in all cases: cell-based
P. falciparum Dd2-B2 = experiment: Blood-stage dose-response assay (72 hr), Dd2 / Dd2-B2 parent; settings: Plasmodium falciparum, DD2, read-out: Dd2-B2 parent EC50 ± SD (nM)
Experimental: (§1) The 3D7-A10 clone has been used in previous in vitro drug selection and sequencing efforts ([Cowell et al., 2018]). Dd2 parasites were obtained from T. Wellems (NIAID, NIH). Dd2-B2 is a genetically homogeneous line that was cloned from Dd2 by limiting dilution in the Fidock lab. Parasite strains were cultured in 3-5% human O+ hematocrit in RPMI 1640 (Life Technologies) supplemented with 28 mM NaHCO3, 25 mM HEPES, and hypoxanthine ([…]). Depending on the parasite line, the media either contained gentamycin (25 μg/mL), or no antibiotic and was additionally supplemented with 0.5% AlbuMAX II (Life Technologies) and/or O+ human serum (heat inactivated and pooled). Blood and serum products were obtained from Interstate Blood Bank. Cultures were maintained at 37°C in 1.1% O2, 4% CO2, and 95% N2. Parasite populations were synchronized by 5% sorbitol treatment ([Lambros and Vanderberg, 1979]).
(§2) For in vitro–selected lines, drug susceptibility was measured by SYBR Green I–based assay ([Johnson et al., 2007]; [Smilkstein et al., 2004]). Ring-stage parasites were cultured for 72 hr at 1% hematocrit and 1% starting parasitemia in 384-well black clear-bottom plates containing test compounds plated in triplicate in 12-point serial dilutions. Lysis buffer (0.16% w/v saponin, 1.6% Triton X-100, 5 mM EDTA, and 20 mM Tris-HCl, pH 7.4) with SYBR Green I fluorescent dye (Invitrogen) was added, and fluorescence readings were taken (excitation at 494 nm, emission at 530 nm). Alternatively, Dd2-B2 ring-stage cultures at 0.3% parasitemia and 1% hematocrit were exposed for 72 hr to a range of ten drug concentrations that were 2-fold serially diluted in duplicates along with drug-free controls. Parasite survival was assessed by flow cytometry on an Accuri C6 (BD Biosciences) using SYBR Green and MitoTracker Deep Red FM (Life Technologies) as nucleic acid stain and vital dyes respectively. EC50 values were calculated using a nonlinear regression curve fit in Prism Software version 8 (GraphPad).

[1] = tested on: P. falciparum Dd2:A597V (CRISPR edited PfAcAS); experiment: Blood-stage dose-response assay, CRISPR-edited Dd2:A597V line; settings: Plasmodium falciparum, mean ± SD, n bioreplicates
Experimental: as §2
(§3) Mutant PfAcAS-A597V and PfAcAS-T648M parasites were generated using CRISPR/Cas9. The guide RNAs for PfAcAS-A597V (5′-[…]-3′; 5′-[…]-3′) and for PfAcAS-T648M (5′-[…]-3′) were designed using Benchling (https://benchling.com/) to targeting sites in PfAcAS that were 6-14 bp upstream of the A597 codon and 6 bp downstream of the T648 codon respectively. Complementary oligos encoding the gRNA sequences (5′- tatt[…]-3’ / 5’-aaac[…]-3’; 5’-tatt[…]-3’ / 5’-aaac[…]-3’ and 5’- tattg[…]-3’ / 5’-aaac[…]c-3’ ) were phosphorylated using T4 polynucleotide kinase and annealed (95°C for 5 min, then step down of 5°C/min to 25°C) prior to ligation into the BbsI-digested pDC2-coCas9-U6.2-hDHFR plasmid ([Lim et al., 2016]). The donor template for PfAcAS-A597V was synthesized (ThermoFisher) as a 700 bp Genestring fragment spanning position 1468 to 2168 of the PfAcAS gene, and the donor for PfAcAS-T648M synthesized as a 829 bp fragment spanning position 1468 to 2297 and inserted into the AatII/EcoRI sites of the pDC2-coCas9-gRNA-hDHFR plasmid by Gibson assembly. Ring-stage parasites (Dd2) at 5% parasitemia were transfected by electroporation (BioRad Gene Pulser II at 0.310 kV and 950 μF) with 50 μg of each plasmid (plasmid 1: pDC2-coCas9-AcAS-A597V-gRNA1-hDHFR, plasmid 2: pDC2-coCas9-gRNA2-hDHFR, or plasmid 3: pDC2-coCas9-AcAS-T648M-gRNA1-hDHFR), and parasites selected for 10 days with 2.5 nM WR99210 (Jacobus Pharmaceuticals), followed by removal of drug pressure. After confirmation of editing in the bulk culture, clones were isolated by serial limiting dilution and confirmed by Sanger sequencing after PCR amplification from genomic DNA using forward primer 5′-[…]-3′ and reverse primer 5′-[…]-3′ (for A597V) and 5′-[…]-3′ (for T648M).

[2] = tested on: P. falciparum Dd2:T648M (CRISPR edited PfAcAS); experiment: Blood-stage dose-response assay, CRISPR-edited Dd2:T648M line; settings: Plasmodium falciparum, mean ± SD, n bioreplicates
Experimental: as §2, §3

P. falciparum 3D7-A10 = experiment: Blood-stage dose-response assay (SYBR Green I, 72 hr), 3D7 / 3D7-A10 parent; settings: Plasmodium falciparum, mean ± SD, n bioreplicates, read-out: 3D7-A10 parent EC50 ± SD
Experimental: as §1, §2

[3] = tested on: histone acetylation in P. falciparum 3D7-A10; experiment: Histone acetylation Western blot, wild-type 3D7-A10; settings: trophozoites, 3 h exposure
Experimental: Synchronous trophozoite-stage (24-32hr post-invasion) cultures at 3–5% parasitemia and 2% hematocrit in complete medium were exposed to test compounds for 3 hr at 37°C. […] DMSO was tested at 0.1% as the vehicle-only control. Following drug exposure, parasites were isolated via saponin lysis ice-cold 0.1% saponin in phosphate-buffered saline (PBS). Isolated parasites were washed 3x in ice-cold PBS containing protease inhibitor cocktail (cOmplete mini, Roche) and lysed in 1x Laemmli Sample Buffer (Biorad) with 5% beta-mercaptoethanol (Sigma-Aldrich). Samples were heated at 99°C for 10 min before centrifugation. Equal quantities of solute were separated on Protean TGX Precast Gels (4–20% gradient) in Tris-SDS-glycine buffer, transferred to nitrocellulose membrane by iblot (Invitrogen), and blocked for 1h in tris-buffered saline (TBS) with 5% skim milk powder. Blocked membranes were probed with antibodies recognising tetra-acetylated H4 (H4ac4, Sigma-Aldrich 06–866), H4K8ac (CST #2594), H3K9ac (CST #9649) or H3 (CST #4499), at 1:1000 dilution, and PfBiP ([Shonhai et al., 2007]) (at 1:5000 dilution) in 3% milk powder TBS with 0.1% Tween 20 at 4°C overnight and with 800CW goat α-rabbit IgG (Licor) at 1:10,000 dilution. Membranes were visualised using a Licor Odyssey CLX imaging system and quantified using ImageJ.

C[C@H]1[C@@H](O)O[C@@H]2O[C@@]3(C)CC[C@H]4[C@H](C)CC[C@@H]1[C@@]24OO3 [Dihydroartemisinin]
EC50 (P. falciparum Dd2-B2): 4.6 ± 3 nM
EC50 [1]: 0.0056 ± 0.0035 µM
EC50 [2]: 0.0037 ± 0.003 µM
EC50 (P. falciparum 3D7-A10): 0.0026 ± 0.0016 µM

CC(/C=C/C(=O)NO)=C\[C@@H](C)C(=O)c1ccc(N(C)C)cc1 [trichostatin A]
acetylation of H4K8ac, H3K9ac and tetra-acetylated H4 (H4Ac4) histone markers relative to DMSO [3]: significant increase

OC(c1cc(C(F)(F)F)nc2c(C(F)(F)F)cccc12)C1CCCCN1 (stereo not shown) [Mefloquine]
EC50 (P. falciparum Dd2-B2): 15 ± 5.7 nM
EC50 [1]: 0.031 ± 0.017 µM
EC50 [2]: 0.02 ± 0.011 µM
EC50 (P. falciparum 3D7-A10): 0.018 ± 0.0046 µM

CCN(CC)Cc1cc(Nc2ccnc3cc(Cl)ccc23)ccc1O [Amodiaquine]
EC50 (P. falciparum Dd2-B2): 19 ± 6 nM
EC50 [1]: 0.021 ± 0.0025 µM
EC50 [2]: 0.02 ± 0.0086 µM
EC50 (P. falciparum 3D7-A10): 0.0074 ± 0.0018 µM
